Measurements taken from PMC9120017, “Inhibition mechanism of the chloride channel TMEM16A by the pore blocker 1PBC” (Nature Communications, 2022).
pIC50: −log10 of the molar value. Like-named read-outs stand apart in the source and are kept apart here.

Target: T1, mouse TMEM16A mutant S517A (Mus musculus, UniProt Q8BHY3, S517A)
T1 construct: expressed in transfected cells; host or cells: HEK293T
T1 sequence (Q8BHY3 1-960 S517A): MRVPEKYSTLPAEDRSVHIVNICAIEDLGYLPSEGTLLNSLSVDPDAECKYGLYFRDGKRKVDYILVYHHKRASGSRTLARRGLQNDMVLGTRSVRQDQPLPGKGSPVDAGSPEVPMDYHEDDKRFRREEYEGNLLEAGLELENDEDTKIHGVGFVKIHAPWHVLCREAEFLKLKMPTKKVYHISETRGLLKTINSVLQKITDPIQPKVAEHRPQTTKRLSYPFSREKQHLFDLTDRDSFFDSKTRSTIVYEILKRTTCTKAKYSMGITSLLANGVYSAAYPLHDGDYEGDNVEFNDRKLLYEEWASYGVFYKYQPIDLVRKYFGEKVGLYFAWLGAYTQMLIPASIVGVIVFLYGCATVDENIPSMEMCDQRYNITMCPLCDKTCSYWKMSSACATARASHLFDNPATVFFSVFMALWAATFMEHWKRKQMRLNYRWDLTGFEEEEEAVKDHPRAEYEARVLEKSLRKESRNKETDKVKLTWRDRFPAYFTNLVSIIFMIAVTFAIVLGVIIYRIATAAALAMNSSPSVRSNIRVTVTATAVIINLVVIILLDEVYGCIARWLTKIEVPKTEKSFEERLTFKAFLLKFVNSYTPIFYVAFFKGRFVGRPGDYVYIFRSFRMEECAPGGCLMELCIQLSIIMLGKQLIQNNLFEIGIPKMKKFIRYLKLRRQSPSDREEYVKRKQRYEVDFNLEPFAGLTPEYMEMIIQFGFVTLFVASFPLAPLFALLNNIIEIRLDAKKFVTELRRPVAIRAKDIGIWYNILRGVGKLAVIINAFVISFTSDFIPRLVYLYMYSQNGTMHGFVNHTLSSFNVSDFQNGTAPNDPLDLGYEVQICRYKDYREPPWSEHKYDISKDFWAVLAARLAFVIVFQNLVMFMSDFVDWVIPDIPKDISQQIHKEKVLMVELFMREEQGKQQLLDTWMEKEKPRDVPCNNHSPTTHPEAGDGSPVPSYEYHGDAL
Assay: Inside-out patch recording of 1PBC block, mutant S517A
Format: cell-based
Conditions: for remaining activity at 1 µM: 1PBC 1; for remaining activity at 1 µM / remaining activity at 3 µM / remaining activity at 10 µM / remaining activity at 30 µM / remaining activity at 100 µM: read-out: fraction of unblocked current; for remaining activity at 3 µM: 1PBC 3; for remaining activity at 10 µM: 1PBC 10; for remaining activity at 30 µM: 1PBC 30; for remaining activity at 100 µM: 1PBC 100
Method: HEK293T cells (ATCC CRL-1573) were maintained in Dulbecco’s modified Eagle’s medium (DMEM; Sigma-Aldrich) supplemented with 10 U ml^−1 penicillin, 0.1 mg ml^−1 streptomycin (Sigma-Aldrich), 2 mM L-glutamine (Sigma-Aldrich), and 10% FBS (Sigma-Aldrich) in a humidified atmosphere containing 5% CO2 at 37 °C. HEK293S GnTI^− cells (ATCC CRL-3022) were maintained in HyClone HyCell TransFx-H medium (GE Healthcare) supplemented with 10 U ml^−1 penicillin, 0.1 mg ml^−1 streptomycin, 4 mM L-glutamine, 0.15% poloxamer 188 (Sigma-Aldrich), and 1% FBS in an atmosphere containing 5% CO2 at 185 rpm at 37 °C. The ac splice variant of mouse TMEM16A (UniProt ID: Q8BHY3), mouse TMEM16B (UniProt ID: Q8CFW1), or mouse TMEM16F (UniProt ID: Q6P9J9) bearing a 3C cleavage site, a Venus YFP, a Myc tag, and a Streptavidin-binding peptide (SBP) downstream of the open reading frame in a modified pcDNA3.1 vector (Invitrogen) were used as described previously[21],[31]. Mutations were introduced using a modified QuikChange method[58] and were verified by sequencing.
HEK293T cells were transfected with 3–4 μg DNA per 6 cm Petri dish using the calcium phosphate co-precipitation method and were used within 24–96 h after transfection. Recordings were performed on inside-out patches excised from HEK293T cells expressing the construct of interest. Patch pipettes were pulled from borosilicate glass capillaries (O.D. 1.5 mm, I.D. 0.86 mm, Sutter Instrument) and were fire-polished with a microforge (Narishige) before use. Pipette resistance was typically 3–8 MΩ when filled with the recording solutions detailed below. Seal resistance was typically 4 GΩ or higher. Voltage-clamp recordings were made using Axopatch 200B, Digidata 1550, and Clampex 10.7 (Molecular Devices). Analog signals were filtered with the in-built 4-pole Bessel filter at 10 kHz and were digitized at 20 kHz. Solution exchange was achieved using a gravity-fed system through a theta glass pipette mounted on an ultra-fast piezo-driven stepper (Siskiyou). […] All recordings were performed at 20 °C.
A symmetrical ionic condition was used throughout. Stock solution with Ca^2+-EGTA contained 150 mM NaCl, 5.99 mM Ca(OH)2, 5 mM EGTA, and 10 mM HEPES at pH 7.40. Stock solution with EGTA contained 150 mM NaCl, 5 mM EGTA, and 10 mM HEPES at pH 7.40. Free Ca^2+ concentrations were adjusted by mixing the stock solutions at the required ratios calculated using the WEBMAXC program (http://web.stanford.edu/~cpatton/webmaxcS.htm). Patch pipettes were filled with the stock solution with Ca^2+-EGTA, which has a free Ca^2+ concentration of 1 mM. 1PBC (ChemBridge) stock was reconstituted in anhydrous DMSO (Sigma-Aldrich) at 100 mM and stored at −20 °C. Working solutions with 1PBC were prepared by serial dilution. Unless otherwise stated, experiments were performed at a saturating Ca^2+ concentration as shown in Supplementary Table 1 and the primary data were corrected for current rundown as described previously[21],[25].
Concentration-response relations, obtained from the ratio of the I-V plots before and after the application of the blocker, were fitted to the Hill equation,1 I/Imax=1/1+IC50/[blocker]^h where I/Imax is the normalized current responses, IC50 defines the concentration at which inhibition is at its half-maximum, and h is the Hill coefficient.

## N#Cc1c(C(F)(F)F)cc(O)n2c1nc1ccccc12 [1PBC]
0 mV, 2 µM Ca2+
  pIC50: 5.31
0 mV
  remaining activity at 1 µM: 80.6%
  remaining activity at 3 µM: 62.1%
  remaining activity at 10 µM: 33.3%
  remaining activity at 30 µM: 14.7%
  remaining activity at 100 µM: 6.16%
20 mV
  remaining activity at 1 µM: 76.4%
  remaining activity at 3 µM: 56.5%
  remaining activity at 10 µM: 28.2%
  remaining activity at 30 µM: 12%
  remaining activity at 100 µM: 4.78%
40 mV
  remaining activity at 1 µM: 72.2%
  remaining activity at 3 µM: 50.9%
  remaining activity at 10 µM: 24.2%
  remaining activity at 30 µM: 10.1%
  remaining activity at 100 µM: 4.43%
60 mV
  remaining activity at 1 µM: 68.1%
  remaining activity at 3 µM: 46.8%
  remaining activity at 10 µM: 21.4%
  remaining activity at 30 µM: 9.12%
  remaining activity at 100 µM: 4.02%
80 mV
  remaining activity at 1 µM: 65.8%
  remaining activity at 3 µM: 43.5%
  remaining activity at 10 µM: 19.4%
  remaining activity at 30 µM: 8.68%
  remaining activity at 100 µM: 3.86%
  log-fold IC50 (change of mutant vs WT): 0.0426
100 mV
  remaining activity at 1 µM: 66.4%
  remaining activity at 3 µM: 42.4%
  remaining activity at 10 µM: 17.8%
  remaining activity at 30 µM: 8.48%
  remaining activity at 100 µM: 3.89%
120 mV
  remaining activity at 1 µM: 68.4%
  remaining activity at 3 µM: 44.1%
  remaining activity at 10 µM: 18.2%
  remaining activity at 30 µM: 8.95%
  remaining activity at 100 µM: 3.95%
140 mV
  remaining activity at 1 µM: 72%
  remaining activity at 3 µM: 49.1%
  remaining activity at 10 µM: 20.6%
  remaining activity at 30 µM: 10.1%
  remaining activity at 100 µM: 4.21%
-20 mV
  remaining activity at 1 µM: 84.8%
  remaining activity at 3 µM: 67.7%
  remaining activity at 10 µM: 38.5%
  remaining activity at 30 µM: 17.4%
  remaining activity at 100 µM: 7.53%
-40 mV
  remaining activity at 1 µM: 89.1%
  remaining activity at 3 µM: 73.3%
  remaining activity at 10 µM: 44.6%
  remaining activity at 30 µM: 20.4%
  remaining activity at 100 µM: 8.84%
-60 mV
  remaining activity at 1 µM: 92.3%
  remaining activity at 3 µM: 77.2%
  remaining activity at 10 µM: 50%
  remaining activity at 30 µM: 25.6%
  remaining activity at 100 µM: 10.3%
-80 mV
  remaining activity at 1 µM: 93.4%
  remaining activity at 3 µM: 82.9%
  remaining activity at 10 µM: 54.7%
  remaining activity at 30 µM: 29.2%
  remaining activity at 100 µM: 12.6%
-100 mV
  remaining activity at 1 µM: 95%
  remaining activity at 3 µM: 86.4%
  remaining activity at 10 µM: 59.2%
  remaining activity at 30 µM: 33.1%
  remaining activity at 100 µM: 14.7%
-120 mV
  remaining activity at 1 µM: 95.3%
  remaining activity at 3 µM: 88.8%
  remaining activity at 10 µM: 64.2%
  remaining activity at 30 µM: 36.2%
  remaining activity at 100 µM: 17.1%
-140 mV
  remaining activity at 1 µM: 96.6%
  remaining activity at 3 µM: 90.8%
  remaining activity at 10 µM: 67.7%
  remaining activity at 30 µM: 39.2%
  remaining activity at 100 µM: 19.8%
20 mV, 2 µM Ca2+
  pIC50: 5.42
40 mV, 2 µM Ca2+
  pIC50: 5.52
60 mV, 2 µM Ca2+
  pIC50: 5.60
80 mV, 2 µM Ca2+
  pIC50: 5.66
100 mV, 2 µM Ca2+
  pIC50: 5.67
120 mV, 2 µM Ca2+
  pIC50: 5.64
140 mV, 2 µM Ca2+
  pIC50: 5.56
-20 mV, 2 µM Ca2+
  pIC50: 5.20
-40 mV, 2 µM Ca2+
  pIC50: 5.09
-60 mV, 2 µM Ca2+
  pIC50: 4.99
-80 mV, 2 µM Ca2+
  pIC50: 4.89
-100 mV, 2 µM Ca2+
  pIC50: 4.81
-120 mV, 2 µM Ca2+
  pIC50: 4.74
-140 mV, 2 µM Ca2+
  pIC50: 4.67
S517A, V 0 mV
  pIC50: 5.31
S517A, V 20 mV
  pIC50: 5.42
S517A, V 40 mV
  pIC50: 5.52
S517A, V 60 mV
  pIC50: 5.60
S517A, V 80 mV
  pIC50: 5.66
S517A, V 100 mV
  pIC50: 5.67
S517A, V 120 mV
  pIC50: 5.64
S517A, V 140 mV
  pIC50: 5.56
S517A, V -20 mV
  pIC50: 5.20
S517A, V -40 mV
  pIC50: 5.09
S517A, V -60 mV
  pIC50: 4.99
S517A, V -80 mV
  pIC50: 4.89
S517A, V -100 mV
  pIC50: 4.81
S517A, V -120 mV
  pIC50: 4.73
S517A, V -140 mV
  pIC50: 4.67
